Test results from a melting point compilation (Tetko et al.; mined from patent text by program, amines drawn as free bases though some values may be those of a salt).

SMILES	melting point [°C]
CCCCc1nn(-c2ccccc2C(F)(F)F)c(=O)n1Cc1ccc(-c2ccccc2S(=O)(=O)NC(=O)c2ccccc2Cl)cc1F	88 to 90
CCCc1c(OCCCSc2nnc(SCC(=O)OCC)s2)ccc(C(C)=O)c1O	71 to 72.5
CSC(Nc1cc(C(F)(F)F)cc(C(F)(F)F)c1)=C(C#N)S(C)(=O)=O	129 to 131
O=[N+]([O-])c1cnc2ccc(-c3ccccc3)cc2c1Nc1ccccc1Br	198 to 204
CSc1ncc2n1-c1ccc(Cl)cc1C(c1ccccc1F)=NC2	180 to 181
CC(=O)OCC(=O)C1=CCC2C3CCC4=CC(=O)C=CC4(C)C3(F)C(O)CC12C (centres undefined)	223 to 225
CCc1nc2c(N)nc3cccnc3c2n1CCCCCC(N)=O	220 to 221
Cc1cccc(Nn2c(C)c(C)[nH]c2=S)c1	230
CCCCCCCCCCCC(=O)NCCCCCC(=O)OO	70 to 75
Cc1cc(C)c(-c2c(OCOCC(C)C)oc(-c3ccsc3)c(C)c2=O)c(C)c1	102 to 104
Cc1cnc(C2=NC(C)(C(C)C)C(=O)N2)c(C(O)c2ccc(C)s2)c1 (centres undefined)	147 to 148
CCCSCCCCCCCCCC(=O)O	42 to 43.5
O=c1sc2ccccc2n1CO	101 to 103
CC(=O)OC1(C(=O)COC(=O)CC(C)C)CCC2C3CC(C)C4=CC(=O)C=CC4(C)C3C(O)CC21C (centres undefined)	126 to 130
Cc1ccc2c(C(=O)NC(C)C)c(NC(=O)c3cc(C(F)(F)F)nn3-c3ncccc3Cl)c(C)cc2n1	> 240
CCOC(=O)C(=CC1(OC)C=C2OCOC2=CC1)C(=O)OCC (centres undefined)	118
O=c1cccccc1N1CCN(c2cccccc2=O)CC1	184 to 186
C=C(C)C(=O)Nc1cc(C(C)(C)C)c(O)c(C(C)(C)C)c1	222 to 225
CNC1([C@@H]2CCN(c3cc(N)c4c(=O)c(C(=O)O)cn([C@@H]5C[C@@H]5F)c4c3C)C2)CC1	129 to 131
COc1cc(Cc2cnc(N)nc2N)cc(OC)c1C(C)(C)O	183 to 185
COC(=O)c1cc(C(=O)CBr)c(OC(C)=O)cc1NC(=O)C(F)(F)F	260 to 261

SMILES	melting point [°C]
CC1CC2(CN(O)C2=O)c2cc(F)ccc2O1 (centres undefined)	118 to 120
Cc1ccnc2c1C(=O)c1c(C)cc(=O)[nH]c1C2=O	258 to 261
CCCCc1nc2c(N)nc3cc(-c4ccccc4)ccc3c2n1CC(C)C	> 250
CC1(C)CCCN(CC2(O)CCNCC2)C1	48 to 52
Fc1ccc(Br)nc1Br	47 to 48
CCOCCCCC(=S)c1ccc(C)cc1	62 to 63.5
CC1(C)CC(Cl)C(=Cc2ccc(F)cc2)C1=O (centres undefined)	69
CC(O)C(=O)NC1CCC(CC2CCC(NC(=O)C(C)O)CC2)CC1 (centres undefined)	195 to 199
C#Cc1c(C#N)nn(-c2c(Cl)cc(C(F)(F)F)cc2Cl)c1Cl	109 to 110
Cc1cccc2c1N(CC(=O)N1CC3CCC(CC3)C1)C(=O)C(NC(=O)Nc1cccc(C=O)c1)N=C2c1ccccc1F (centres undefined)	237 to 242
CCN(CC)CC(=O)OC1CC2(C)C(C(C)=O)CCC2C2CCC3CC(O)C(SC#N)CC3(C)C12 (centres undefined)	173 to 180
Cc1cc(Cl)nc(SCC#N)n1	62 to 65
CC(C)(CNCCCCCCNCC(C)(C)[N+](=O)[O-])[N+](=O)[O-]	26 to 27
Cc1nc(-n2cc(-c3ccc(OCc4ccccc4)cc3)nn2)sc1C(=O)NCc1ccccc1	237 to 240
[N-]=[N+]=NC(=O)c1ccc(-c2ccc(C(F)(F)F)cc2)s1	97
O=C1C=CC(=Cc2cccs2)O1	100 to 102
FC(F)(F)CCN1CCN(Cc2ccc3c(c2)-c2[nH]nc(-c4ccsc4)c2C3)CC1	195 to 200
Cc1[nH]c(=O)ccc1-c1ccc(S(C)=O)cc1 (centres undefined)	262 to 264
CC(NC(=O)CSC(=O)c1ccccc1)C(=O)NCC(=O)NCC(=O)O (centres undefined)	167 to 170
Cc1c(S(=O)(=O)Nc2ccc(-c3nc(C(=O)O)cs3)cc2S(C)(=O)=O)sc2ccc(F)cc12	257 to 258
CC(=O)OCC(=O)c1cc(O)c(O)c([N+](=O)[O-])c1	166 to 168

Other lines, results leading:

melting point [°C]	SMILES
151 to 153	CC(C)c1cccc(C(C)C)c1NC(=O)CN1CN(c2ccccc2)C2(CCCCC2)C1
183 to 184	O=C(Nc1nc(C(F)(F)F)c(Cl)s1)c1ccc(Cl)c([N+](=O)[O-])c1
103	Cc1cccc(NC(=O)NCC(=O)N(c2ccccc2)C(C(=O)OC(C)(C)C)c2cccc(Br)c2)c1 (racemic)
205 to 206	O=C(O)c1ccnc(-c2cccc3cc(Cc4cc(F)cc(Cl)c4)sc23)c1
229 to 231	CCc1cccc(CC)c1NC(=O)Nc1sc2cc(OC)c(OC)cc2c1-c1ccccc1Cl
90 to 91	CC(C)N(CCC(CCN(C)C1CCCCC1)(C(N)=O)c1ccccc1)C(C)C (centres undefined)
202 to 204	COC1Cn2ccc(=O)c(OCc3ccccc3)c2C(c2ccccc2)O1 (centres undefined)
95 to 96	C=CCNC(=O)N1CC(Oc2cccc(C)c2)C1
226 to 227	O=C(O)c1cn(C2CC2)c2cc(Cl)ncc2c1=O
138 to 139	Oc1cnccc1CCCOc1cccnc1Cc1cccc(Br)c1
114 to 115	CC1(C)CCC(Br)(C(Br)c2ccc(Cl)cc2)C(=O)C1 (centres undefined)
104 to 105	CCOC(=O)c1cccc(N)c1NCc1ccc(-c2ccccc2C#N)cc1
240 to 244	NC(=O)[C@@H]1[C@H](Nc2ccnc3[nH]c(-c4ccc(CN5CCOCC5)cc4)nc23)[C@H]2C=C[C@@H]1C2
310 to 312	O=C(O)c1cn2c(n1)COc1ccc([N+](=O)[O-])cc1-2
94 to 96	COc1ccc(N2CCN(c3c(C)c(C)c4c(c3C)C(CN3CCCC3)C(C)(C)O4)CC2)cc1 (centres undefined)
135 to 137	CN1CCN(c2nn(S(=O)(=O)c3ccccc3)c3ccc(Br)cc23)CC1
95.2	CCOC(=O)N1CC[C@H](N(Cc2ccccc2)Cc2ccccc2)[C@H](OC)C1 (relative stereo)
230 to 231	CN(C)Cc1ccc2cc(NC(=O)c3ccc(-c4ccc(Cl)cc4)cc3)ccc2c1
> 280	O=C(O)c1ccc2oc3ccccc3c(=O)c2c1
186 to 188	CC(C)C1(C)N=C(c2ccccc2C(=O)O)N(O)C1=O (centres undefined)
94 to 96.5	N#Cc1ccccc1N1CCc2ccccc21
213 to 215	CCOc1ccccc1-c1cc(OC)c(C(=O)N2Cc3cccn3Cc3ccccc32)cc1Cl
215 to 217	CCCOc1ccc(S(=O)(=O)N2CCN(C(C)=O)CC2)cc1-c1nc2cc(Cl)c([N+](=O)[O-])cc2c(=O)[nH]1
207 to 208	COc1ccnc(CCc2nc3cc(-c4ccc(S(=O)(=O)N5CCc6cc(OC)c(OC)cc6C5)cc4)cnc3[nH]2)c1
169 to 171	CCOC(=O)COc1ccc(-c2cc(O)c(SCCc3ccccc3)c(=O)o2)cc1
105 to 106	COc1cccc(C(NC(=O)Cc2c(Cl)cncc2Cl)C2CCCC2)c1 (centres undefined)

melting point [°C]	SMILES
143 to 144	CC(=O)Oc1cc(OC(C)=O)c2c(c1)OC(c1ccc(OC(C)=O)c(OC(C)=O)c1)CC2 (centres undefined)
131 to 132	Nc1cc(=O)n(CCCO)c2nc(NC3CCCCC3)ncc12
58	CCOC(=O)C(CC)Sc1nc2c(c(=O)n(CCOC)c(=O)n2C)n1Cc1cccc(Br)c1 (centres undefined)
215 to 216	Cc1cc(N2CCN(C(=O)N3CCN(S(=O)(=O)c4ccc(Br)cc4)CC3)CC2)ncn1
64 to 66	O=C(Nc1ccc(OCCCc2cccnc2)c2ccccc12)c1cc(F)cc(N2CCOCC2)c1
225 to 227	CN(C)CCNc1ccc2c3c(nn2CCNC(=O)OC(C)(C)C)-c2cnccc2C(=O)c13
156	COc1cc(Nc2nccc(-c3ccc4ccccc4c3)n2)cc(OC)c1OC
91	COCc1cc2c([N+](=O)[O-])cccc2cn1
229 to 230	COc1cccc(-c2nc3n(n2)Cc2cc(Cl)ccc2-3)c1
204 to 205	COc1ccc(-c2coc3ccc(-c4nnc(S)o4)cc23)cc1
222 to 223	NC(=O)c1cc2c(OCCCN3CCN(C(c4ccccc4)c4ccccc4)CC3)cccc2[nH]1
91 to 93	COC(=O)[C@@H]1CCCCCOc2ccc(cc2)C[C@H](NC(=O)OCc2ccccc2)C(=O)N[C@@H](CC(C)C)C(=O)N1
143	Cc1ccccc1C(CCC(=O)O)Oc1cc(OCc2ccsc2)ccc1C#N (centres undefined)
253	CCCC1=C(C#N)C(c2ccccc2Cl)c2c(n[nH]c2-c2ccco2)N1 (centres undefined)
133	O=C(NCc1ccccc1Cl)c1ccc(Br)cc1
184 to 185	CC(C)(C)OC(=O)N[C@@H](Cc1ccc(-c2ccccc2)cc1)c1nnnn1CCC#N
205 to 209	O=P(c1ccccc1)(c1ccccc1)C(O)c1c(Cl)cccc1Cl (centres undefined)
143 to 145	O=c1[nH]c2cc(Cl)ccc2n1C1CCN(CC2=NOC(c3ccc(F)cc3)C2)CC1 (single isomer, unassigned; (-))
295 to 297	O=C1c2cc(Cl)ccc2C(O)N1c1ccc2ccc(Cl)nc2n1 (centres undefined)
190	Cc1nc2ccccc2c(NCc2ccccc2)c1C(=O)O
121 to 122	COc1ccc(C(=O)COC(=O)NC(C)C)cc1
149 to 150	COCN1C(C)=C(C(=O)OC)C(c2cccc(Cl)c2Cl)C(C(=O)OCOC(=O)C(C)(C)C)=C1C (single isomer, unassigned; (+))
129	CCOC(=O)c1ccc(CN2CCN(c3cc(-c4ccccc4)c4ccc(=O)ccn34)CC2)cc1
157 to 160	COc1cc2c(N3CCN(C(=O)Nc4ccc(Oc5ccccc5)cc4)CC3)ncnc2cc1OC(C)C
194 to 195	CNC(=O)c1cc(F)ccc1CNC(=O)c1nc2n(c(=O)c1OCc1ccccc1)CCN2c1ccccc1
111 to 113	CC(N)C(=O)Nc1coc2cc(NS(C)(=O)=O)c(Oc3ccccc3)cc2c1=O (centres undefined)
